{"source": "patent US20080267939A1", "about": "“SYNERGISTIC ANTI-HYPERTENSIVE PHYTO-NUTRACEUTICAL COMPOSITION” (priority 2006, published 2008)", "origin": "cited, not measured here", "key": {"[1]": {"system": "bacterial resistance mechanism (multidrug pump)", "details": "in the presence of 5′-MHC"}, "[2]": {"system": "aged diabetic Zucker fatty rats"}, "[3]": {"system": "blood pressure", "details": "lower doses"}, "[4]": {"system": "patients having class III or IV cardiomiopathy", "details": "group A, during CoQ10 treatment, oral"}, "[5]": {"target": "platelet activating factor (PAF) membrane receptors (Homo sapiens, UniProt P25105)", "sequence (P25105 whole entry)": "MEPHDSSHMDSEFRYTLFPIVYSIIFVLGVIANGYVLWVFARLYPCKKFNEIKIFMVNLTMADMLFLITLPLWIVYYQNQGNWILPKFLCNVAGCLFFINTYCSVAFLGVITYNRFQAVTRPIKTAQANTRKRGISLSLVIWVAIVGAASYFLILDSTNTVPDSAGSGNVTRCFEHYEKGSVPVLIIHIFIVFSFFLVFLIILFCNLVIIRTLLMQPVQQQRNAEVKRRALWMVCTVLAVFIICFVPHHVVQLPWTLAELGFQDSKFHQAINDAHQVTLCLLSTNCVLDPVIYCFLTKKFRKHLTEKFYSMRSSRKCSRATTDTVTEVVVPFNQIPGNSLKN"}, "[6]": {"target": "T1, endothelial NO synthase (eNOS) (Homo sapiens, UniProt P29474)", "T1 sequence (P29474 1-1203)": "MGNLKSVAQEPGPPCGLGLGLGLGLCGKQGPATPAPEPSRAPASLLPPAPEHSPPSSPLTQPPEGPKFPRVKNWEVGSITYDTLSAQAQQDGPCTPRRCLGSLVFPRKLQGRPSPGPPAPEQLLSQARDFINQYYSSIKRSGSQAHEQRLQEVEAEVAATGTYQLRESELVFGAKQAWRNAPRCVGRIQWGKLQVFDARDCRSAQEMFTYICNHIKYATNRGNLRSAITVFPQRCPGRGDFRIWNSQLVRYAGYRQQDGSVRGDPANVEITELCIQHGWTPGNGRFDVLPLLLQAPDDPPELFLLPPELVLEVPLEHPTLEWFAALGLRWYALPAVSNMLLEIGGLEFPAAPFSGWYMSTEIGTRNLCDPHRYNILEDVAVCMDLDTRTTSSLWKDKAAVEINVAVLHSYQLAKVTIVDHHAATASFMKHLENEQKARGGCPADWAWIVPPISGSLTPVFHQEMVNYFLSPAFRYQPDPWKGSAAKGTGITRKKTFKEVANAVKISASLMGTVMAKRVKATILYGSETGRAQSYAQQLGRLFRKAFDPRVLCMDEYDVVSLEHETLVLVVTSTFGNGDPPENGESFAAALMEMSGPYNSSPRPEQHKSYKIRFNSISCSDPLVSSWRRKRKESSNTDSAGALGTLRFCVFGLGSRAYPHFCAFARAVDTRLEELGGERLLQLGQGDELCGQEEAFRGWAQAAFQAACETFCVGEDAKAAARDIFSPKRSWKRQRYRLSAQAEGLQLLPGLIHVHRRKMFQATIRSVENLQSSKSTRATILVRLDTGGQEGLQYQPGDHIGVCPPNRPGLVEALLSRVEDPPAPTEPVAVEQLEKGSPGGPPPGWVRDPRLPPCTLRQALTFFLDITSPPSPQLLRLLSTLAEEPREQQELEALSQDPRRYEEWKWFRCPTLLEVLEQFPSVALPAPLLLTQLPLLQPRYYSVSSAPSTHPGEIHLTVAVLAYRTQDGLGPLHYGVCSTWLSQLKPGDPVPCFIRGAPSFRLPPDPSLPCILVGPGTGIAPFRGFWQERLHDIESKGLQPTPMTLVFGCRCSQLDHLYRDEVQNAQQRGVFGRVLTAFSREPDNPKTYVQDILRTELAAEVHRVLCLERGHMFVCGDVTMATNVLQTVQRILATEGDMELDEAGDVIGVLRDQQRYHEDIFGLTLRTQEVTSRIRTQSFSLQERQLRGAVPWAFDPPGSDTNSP"}, "[7]": {"system": "blood pressure", "details": "in vivo"}, "[8]": {"system": "renal hypertensive dogs", "details": "chronic oral administration"}, "[9]": {"system": "rabbit aortic rings", "details": "pre-contracted rabbit aortic rings"}, "[10]": {"system": "rats with pre-eclampsia"}, "[11]": {"system": "rat aorta", "details": "endothelium-intact and endothelium-denuded rat aorta"}, "[12]": {"target": "T2, L-type calcium channel (Rattus norvegicus, UniProt P22002)", "T2 construct": "Effect of puerarin on L-type calcium channel in isolated rat ventricular myocytes; endogenous in cells; host or cells: isolated rat ventricular myocytes", "T2 sequence (P22002 whole entry, other chains not shown)": "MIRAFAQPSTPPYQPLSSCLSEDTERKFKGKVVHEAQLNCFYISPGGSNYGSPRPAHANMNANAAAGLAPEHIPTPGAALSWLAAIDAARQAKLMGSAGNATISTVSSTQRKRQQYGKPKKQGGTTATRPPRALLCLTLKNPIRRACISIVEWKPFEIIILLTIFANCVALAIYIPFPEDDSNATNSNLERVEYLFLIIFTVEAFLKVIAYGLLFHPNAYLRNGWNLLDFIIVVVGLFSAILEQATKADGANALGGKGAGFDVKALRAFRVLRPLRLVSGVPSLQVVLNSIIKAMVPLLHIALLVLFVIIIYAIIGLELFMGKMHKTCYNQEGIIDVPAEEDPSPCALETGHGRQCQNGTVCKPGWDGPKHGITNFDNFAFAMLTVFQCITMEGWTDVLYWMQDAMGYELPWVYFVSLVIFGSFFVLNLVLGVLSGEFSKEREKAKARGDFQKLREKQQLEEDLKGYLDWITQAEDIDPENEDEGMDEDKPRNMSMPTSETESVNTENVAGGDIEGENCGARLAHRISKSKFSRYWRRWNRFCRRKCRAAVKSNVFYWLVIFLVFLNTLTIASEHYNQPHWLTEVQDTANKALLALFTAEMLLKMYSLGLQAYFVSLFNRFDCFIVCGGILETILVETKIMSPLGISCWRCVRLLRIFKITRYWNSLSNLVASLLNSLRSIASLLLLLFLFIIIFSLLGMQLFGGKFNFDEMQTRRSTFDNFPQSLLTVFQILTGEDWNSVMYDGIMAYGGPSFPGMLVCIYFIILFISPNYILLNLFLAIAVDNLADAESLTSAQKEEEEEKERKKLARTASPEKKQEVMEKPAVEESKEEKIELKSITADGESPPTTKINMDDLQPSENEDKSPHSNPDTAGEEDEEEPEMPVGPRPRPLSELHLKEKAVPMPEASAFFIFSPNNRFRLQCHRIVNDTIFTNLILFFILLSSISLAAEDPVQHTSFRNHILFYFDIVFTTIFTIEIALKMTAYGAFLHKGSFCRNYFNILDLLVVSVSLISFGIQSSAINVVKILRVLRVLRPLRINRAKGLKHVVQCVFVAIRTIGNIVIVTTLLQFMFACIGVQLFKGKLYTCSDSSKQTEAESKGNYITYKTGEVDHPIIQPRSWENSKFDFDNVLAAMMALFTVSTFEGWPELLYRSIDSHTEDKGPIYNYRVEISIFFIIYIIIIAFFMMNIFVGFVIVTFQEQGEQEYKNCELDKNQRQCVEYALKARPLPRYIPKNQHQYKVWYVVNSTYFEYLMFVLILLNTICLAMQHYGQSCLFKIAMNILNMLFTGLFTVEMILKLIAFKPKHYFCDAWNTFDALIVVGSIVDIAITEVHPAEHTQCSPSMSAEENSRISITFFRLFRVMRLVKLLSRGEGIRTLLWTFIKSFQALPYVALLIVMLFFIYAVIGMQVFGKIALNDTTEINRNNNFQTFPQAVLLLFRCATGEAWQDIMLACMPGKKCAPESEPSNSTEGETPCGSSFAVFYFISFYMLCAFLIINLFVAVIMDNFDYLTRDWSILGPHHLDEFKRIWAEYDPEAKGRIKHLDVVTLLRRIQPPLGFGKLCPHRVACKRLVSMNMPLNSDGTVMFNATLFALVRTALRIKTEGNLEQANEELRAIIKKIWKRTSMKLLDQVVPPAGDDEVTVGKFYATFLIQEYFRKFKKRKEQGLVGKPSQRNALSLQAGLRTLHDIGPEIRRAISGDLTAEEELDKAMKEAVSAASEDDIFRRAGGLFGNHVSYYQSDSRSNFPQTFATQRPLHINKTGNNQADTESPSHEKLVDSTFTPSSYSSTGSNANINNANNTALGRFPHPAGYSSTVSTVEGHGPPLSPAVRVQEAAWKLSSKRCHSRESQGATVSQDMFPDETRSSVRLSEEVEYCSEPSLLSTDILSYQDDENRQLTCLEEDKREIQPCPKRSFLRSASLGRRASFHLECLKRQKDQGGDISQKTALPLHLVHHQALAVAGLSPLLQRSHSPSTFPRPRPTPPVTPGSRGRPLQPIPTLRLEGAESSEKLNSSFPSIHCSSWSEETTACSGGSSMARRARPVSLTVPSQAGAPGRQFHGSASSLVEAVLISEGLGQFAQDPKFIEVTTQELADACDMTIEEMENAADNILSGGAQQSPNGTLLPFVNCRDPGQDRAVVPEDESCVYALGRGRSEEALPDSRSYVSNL", "T2 sequence (P54290 25-944 partner limits assumed, other chains not shown)": "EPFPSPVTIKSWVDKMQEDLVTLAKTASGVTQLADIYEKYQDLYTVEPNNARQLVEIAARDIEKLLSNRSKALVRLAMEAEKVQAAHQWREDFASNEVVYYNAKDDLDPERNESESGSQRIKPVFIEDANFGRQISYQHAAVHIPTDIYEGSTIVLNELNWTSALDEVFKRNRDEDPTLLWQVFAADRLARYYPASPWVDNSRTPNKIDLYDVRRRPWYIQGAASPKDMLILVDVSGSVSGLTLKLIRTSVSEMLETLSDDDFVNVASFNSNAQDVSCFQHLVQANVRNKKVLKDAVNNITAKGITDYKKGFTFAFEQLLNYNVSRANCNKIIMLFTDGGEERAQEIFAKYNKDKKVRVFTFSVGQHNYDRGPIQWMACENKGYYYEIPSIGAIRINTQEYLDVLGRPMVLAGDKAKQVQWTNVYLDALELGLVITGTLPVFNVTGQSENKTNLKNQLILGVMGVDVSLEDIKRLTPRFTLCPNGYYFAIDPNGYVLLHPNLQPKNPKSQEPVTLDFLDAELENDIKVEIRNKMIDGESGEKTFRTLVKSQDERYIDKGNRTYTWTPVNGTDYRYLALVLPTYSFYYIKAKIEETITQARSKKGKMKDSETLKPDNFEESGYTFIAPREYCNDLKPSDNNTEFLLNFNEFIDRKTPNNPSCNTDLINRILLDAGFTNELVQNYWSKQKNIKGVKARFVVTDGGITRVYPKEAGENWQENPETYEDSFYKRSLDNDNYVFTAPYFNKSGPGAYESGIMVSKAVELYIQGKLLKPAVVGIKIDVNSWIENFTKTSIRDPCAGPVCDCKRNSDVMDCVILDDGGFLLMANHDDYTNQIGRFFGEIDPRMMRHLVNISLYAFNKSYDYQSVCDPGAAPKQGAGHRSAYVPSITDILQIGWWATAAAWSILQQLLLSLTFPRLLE", "T2 sequence (P54290 945-1091 partner limits assumed, other chains not shown)": "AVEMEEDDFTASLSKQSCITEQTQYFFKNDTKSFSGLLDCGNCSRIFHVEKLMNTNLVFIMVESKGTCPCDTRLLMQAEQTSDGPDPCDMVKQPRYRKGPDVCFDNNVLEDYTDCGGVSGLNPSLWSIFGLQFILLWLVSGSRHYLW", "details": "rat ventricular myocytes"}, "[13]": {"target": "T3, L-type calcium channel (Cavia porcellus, UniProt O35505)", "T3 construct": "calcium channel in isolated guinea pig ventricular myocytes; endogenous in cells; host or cells: isolated guinea pig ventricular myocytes", "details": "isolated guinea pig ventricular myocytes"}, "[14]": {"system": "blood pressure", "details": "clinically"}, "[15]": {"system": "laboratory animals"}, "[16]": {"system": "vascular smooth muscle cells"}, "[17]": {"system": "spontaneously hypertensive rats"}, "[18]": {"system": "vascular smooth muscle cells", "remark": "listed apart in the source"}, "[19]": {"system": "rat aorta"}}}
{"compound": "COc1cc([C@H]2Oc3cc(-c4cc(=O)c5c(O)cc(O)cc5o4)cc(OC)c3O[C@@H]2CO)ccc1O", "note": "(racemic) [5′-MHC, 5′-methoxyhydnocarpin]", "values": [{"measurement": "accumulation of berberine in the cells", "setting": "[1]", "value": "strong increase"}]}
{"compound": "O=C(O)CC(O)(C(=O)O)C(O)C(=O)O", "note": "(single isomer, unassigned; (-)) [(−)-hydroxycitric acid (HCA), (−)-hydroxycitric acid]", "values": [{"measurement": "blood pressures compared to control", "setting": "[2]", "value": "significantly lowered blood pressures"}]}
{"compound": "CCCCC[C@H](O)CC(=O)CCc1ccc(O)c(OC)c1", "note": "[(6)-gingerol]", "values": [{"measurement": "response on the blood pressure", "setting": "[3]", "value": "produced depressor response"}]}
{"compound": "CCCCC/C=C/C(=O)CCc1ccc(O)c(OC)c1", "note": "[(6)-shogaol]", "values": [{"measurement": "response on the blood pressure", "setting": "[3]", "value": "produced depressor response"}]}
{"compound": "COC1=C(OC)C(=O)C(C/C=C(\\C)CC/C=C(\\C)CC/C=C(\\C)CC/C=C(\\C)CC/C=C(\\C)CC/C=C(\\C)CC/C=C(\\C)CC/C=C(\\C)CC/C=C(\\C)CCC=C(C)C)=C(C)C1=O", "note": "[CoQ10, Coenzyme Q10]", "values": [{"measurement": "cardiac function", "setting": "[4]", "value": "significant increases in cardiac function"}]}
{"compound": "CC1C(=O)OC2C(O)C34C5CC(C(C)(C)C)C36C(OC(=O)C6O)OC4(C(=O)O5)C12O", "note": "(centres unmarked) [Ginkgolide B]", "values": [{"measurement": "inhibition of platelet activating factor (PAF)", "setting": "[5]", "value": "powerful inhibitor"}]}
{"compound": "CC(C)=CCC[C@](C)(O[C@@H]1O[C@H](CO)[C@@H](O)[C@H](O)[C@H]1O)[C@H]1CC[C@]2(C)[C@@H]1[C@H](O)C[C@@H]1[C@@]3(C)CC[C@H](O)C(C)(C)[C@@H]3[C@@H](O[C@@H]3O[C@H](CO)[C@@H](O)[C@H](O)[C@H]3O[C@@H]3O[C@@H](C)[C@H](O)[C@@H](O)[C@H]3O)C[C@]12C", "note": "[Ginsenoside Re]", "values": [{"measurement": "eNOS activation / NO release", "setting": "[6]", "value": "activate endothelial NO synthase (eNOS) to release NO"}]}
{"compound": "C[C@@H]1O[C@@H](O[C@@H]2[C@@H](O)[C@H](OCCc3ccc(O)c(O)c3)O[C@H](CO)[C@H]2OC(=O)/C=C/c2ccc(O)c(O)c2)[C@H](O[C@@H]2OC[C@@H](O)[C@@H](O)[C@@H]2O)[C@H](O)[C@H]1O", "note": "[Lavandulifolioside]", "values": [{"measurement": "blood pressure", "setting": "[7]", "value": "decreases blood pressure"}]}
{"compound": "O=C(O)CC[N+](=O)[O-]", "note": "[NPA, 3-Nitropropionic acid]", "values": [{"measurement": "blood pressure", "setting": "[8]", "value": "decrease in blood pressure"}, {"measurement": "relaxation of aortic rings", "setting": "[9]", "value": "dose-dependent relaxation"}]}
{"compound": "O=c1c(-c2ccc(O)cc2)coc2c([C@@H]3O[C@H](CO)[C@@H](O)[C@H](O)[C@H]3O)c(O)ccc12", "note": "[Puerarin, puerarin]", "values": [{"measurement": "NO concentration and blood pressure", "setting": "[10]", "value": "elevate the level of NO concentration and decrease blood pressure"}, {"measurement": "contractions induced by phenylephrine", "setting": "[11]", "value": "completely relaxed"}, {"measurement": "L-type calcium current", "setting": "[12]", "value": "inhibit L-type calcium current"}, {"measurement": "effect on L-type calcium channel", "setting": "[13]", "value": "blocking effect on L-type calcium channel in a concentration dependent manner"}, {"measurement": "systolic and diastolic blood pressure", "setting": "[14]", "value": "reduces both systolic and diastolic blood pressure"}, {"measurement": "decrease of blood pressure", "setting": "[15]", "value": 15, "unit": "%"}, {"measurement": "proliferation and DNA synthesis of vascular smooth muscle cells", "setting": "[16]", "value": "suppress"}]}
{"compound": "COc1cc(/C=C/C(=O)O)ccc1O", "note": "[ferulic acid]", "values": [{"measurement": "carotid arterial pressure", "setting": "[17]; intravenous injection, anesthetized hypertensive rats", "value": "dose dependently reduced"}, {"measurement": "systolic blood pressure", "setting": "[17]; oral administration, hypertensive rats", "value": "significantly decreased"}]}
{"compound": "CCC/C=C1\\OC(=O)C2=C1CCC=C2", "note": "[ligustilide]", "values": [{"measurement": "vascular smooth muscle cells proliferation and cell cycle progression", "setting": "[18]", "value": "significantly inhibited"}]}
{"compound": "Cycloleonuripeptide E", "values": [{"measurement": "vasorelaxant effects", "setting": "[19]", "value": "moderate vasorelaxant effects"}]}
{"compound": "cycloleonuripeptide F", "values": [{"measurement": "vasorelaxant effects", "setting": "[19]", "value": "moderate vasorelaxant effects"}]}
{"compound": "niacin-bound chromium", "values": [{"measurement": "blood pressures compared to control", "setting": "[2]", "value": "significantly lowered blood pressures"}]}
